In patent US4822780A, “Carboxamide compounds” (Otsuka Pharmaceutical Factory, Inc., priority 1987, dated 1989):

System: vascular smooth muscles (thoracic aorta)
Assay: Calcium antagonistic action in vascular smooth muscles (spiral piece of thoracic aorta, Ca2+ dose-reaction curve in presence of KCl)
Type: cell-based, Male Wistar rats
Conditions: isolated rat aorta spiral piece, 37° C.; KCl 5×10^-2 M; CaCl2 10^-4 to 3×10^-2 M; test compound 3×10^-7 to 10^-5 M; Van Rossum method; 5 samples
Procedure: Male Wistar rats weighing about 250 g were anesthetized with ether, hit hard in the occipital region, and the both common carotid arteries were cut to let blood, and the thoracic aorta was removed. Fat tissues depositing on the extracted blood vessel were removed, and a spiral piece of 2 mm×50 mm was prepared.
This spiral piece of aort was kept at 37° C., and was suspended in an organ bath containing Ca^2+ --free Krebs--Henseleit solution ventilated with mixed gas of 95% O2 and 5% CO2 and its contraction reaction was measured in the following method by way of an isotonic transducer.
In the first place, to the spiral piece deprived of Ca^2+, CaCl2 solution of 10^-4 to 3×10^-2 M was comulatively added in the presence of KCl of 5×10^-2 M, and the dose-reaction curve by Ca^2+ was determined, and after removing Ca^2+ again, the dose-reaction curve by Ca^2+ was determined in the presence of the test compound, and from the difference of these reactions, the pA2 value of Ca^2+ antagonistic action of the test compound was calculated. The concentration of the test compound was 3×10^-7 to 10^-5 M. (The pA2 value was calculated according to the method proposed by Van Rossum, J. M., in Arch. Int. Pharmarcodyn., 143, 299-330, 1963).

**Q.** With `CCOP(=O)(Cc1ccc(C(=O)N(Cc2ccccc2)c2ccccc2)cc1)OCC` [Example 45, 4-diethoxyphosphinylmethyl-N-benzyl-N-phenylbenzamide] as the compound, how does the “pA2 value of Ca^2+ antagonistic action” value read?
**A.** 6.75 ± 0.08

**Q.** With `CCOP(=O)(Cc1ccc(C(=O)N(Cc2ccc([N+](=O)[O-])cc2)c2ccccc2)cc1)OCC` [Example 46] as the compound, how does the “pA2 value of Ca^2+ antagonistic action” value read?
**A.** 6.07 ± 0.12

**Q.** How did the “pA2 value of Ca^2+ antagonistic action” value turn out when `CCOP(=O)(Cc1ccc(C(=O)N(Cc2ccccc2)c2ccc(OC)cc2)cc1)OCC` [Example 56, 4-diethoxyphosphinylmethyl-N-benzyl-N-(4-methoxyphenyl)benzamide] was run?
**A.** 6.99 ± 0.11

**Q.** Which “pA2 value of Ca^2+ antagonistic action” value does the source give for `CCOP(=O)(Cc1ccc(C(=O)Nc2ccccc2O)cc1)OCC` [Example 13] here?
**A.** 6.52 ± 0.10

**Q.** How did the “pA2 value of Ca^2+ antagonistic action” value turn out when `CCOP(=O)(Cc1cccc(C(=O)N(Cc2ccc(C(=O)OC)cc2)c2ccccc2)c1)OCC` [Example 74] was run?
**A.** 6.50 ± 0.09
